# Patent US9885727B2, “Cell culture models for validating candidate compounds for use in treating COPD and other diseases” (THE TRUSTEES OF COLUMBIA UNIVERSITY IN THE CITY OF NEW YORK, priority 2010, dated 2018)
# Columns and labels:
# [1] = Stability of DES and IDS on acid hydrolysis (6N HCl, 110° C., 24 hrs), LC/MSMS; conditions: for Recovered, mean: 6N HCl at 110° C. for 24 hour; for stability through acid hydrolysis: 10, 5 and 1 ng/ml, HCl hydrolysis at 110° C. for 24 hrs
# Description: The assay of total DES and IDS in biological fluids requires HCl hydrolysis at 110° C. to release DES and IDS from their crosslinked or peptide conjugates. We examined the stability of DES and IDS in three different concentrations (10, 5, and 1 ng/ml) during HCl hydrolysis at 110° C. for 24 hrs. The DES/IDS solutions resulting from the HCl treatment were subjected to LC/MSMS measurements of DES and IDS, which were compared with the measurements of the same concentrations of untreated DES and IDS to calculate the recovery by the acid treatment.
# [2] = system: COPD patients; assay: Spirometry in post-TIO therapy patients; type: in vivo, human; conditions: most post-TIO therapy patients
# Description: The improvement in spirometric indices were usually concordant with levels of D/I in patients.
# [3] = system: COPD patients; assay: Tiotropium treatment of COPD patients: D/I in plasma, urine and sputum by LC/MS; type: in vivo, human
# Description: COPD patients have elevated levels of D/I in plasma, urine and sputum, which might respond to prolonged bronchodilation. To determine if clinical effects of Tiotropium (TIO) affect tissue degradation of the lung in COPD, clinically stable patients with COPD (n=9) not on TIO prior to the study and at one month and a second month after initiating therapy were tested. Other anticholinergic bronchodilators were stopped prior to TIO, and other therapies/disease treatments were unchanged for the two months of study. To these patients, 18 mcg TIO was administered each 24 hours. D/I in plasma, urine and sputum were measured by liquid chromatography and mass spectrometry (LC/MS) prior to the study and at one month and two months after the study.
# [4] = system: pro-MMP1 and pro-MMP3; conditions: cited from earlier work
# [5] = system: neutrophils and macrophages; conditions: cited from earlier work
# [6] = system: smoke-induced airspace enlargement; type: in vivo, DBA/2J mice
# Description: Eight-week-old female DBA/2J mice (The Jackson Laboratory, Bar Harbor, Me.) were divided into two treatment groups as follows: Group 1 was treated with aerosolized HA, beginning 1 month following initiation of smoke exposure; Group 2 was treated with aerosolized water, beginning 1 month following initiation of smoke exposure. Groups 1 and 2 were exposed to smoke for 3 h per day, 5 days/week, for a period of 10 months. Group 1 was treated with a 0.1% solution of HA in water for 1 h prior to each smoking session. Group 2 received aerosolized water for a similar interval. At various intervals following initial smoke exposure, animals were euthanized to determine (1) DID content in bronchoalveolar lavage fluid (BALF) and whole lungs at 2, 4, 6, 8, and 10 months; (2) lung histopathology at 3, 6, and 10 months; and (3) airspace enlargement as measured by the mean linear intercept (MLI) at 3 months. […]
# At 3, 6, and 10 months following initiation of smoke exposure, mice were asphyxiated with CO2 and their lungs were inflated in situ with 10% neutral-buffered formalin at a constant pressure of 20 cm H2O. […] Slide sections stained with hematoxylin and eosin were examined with the light microscope to determine histological changes and to quantify airspace diameter by the mean linear intercept method^16. […]
# [7] = system: smoke-induced elastic fiber injury; assay: Mouse model of smoke-induced pulmonary emphysema: DID in BALF and whole lungs; type: in vivo, DBA/2J mice
# Description: Eight-week-old female DBA/2J mice (The Jackson Laboratory, Bar Harbor, Me.) were divided into two treatment groups as follows: Group 1 was treated with aerosolized HA, beginning 1 month following initiation of smoke exposure; Group 2 was treated with aerosolized water, beginning 1 month following initiation of smoke exposure. Groups 1 and 2 were exposed to smoke for 3 h per day, 5 days/week, for a period of 10 months. Group 1 was treated with a 0.1% solution of HA in water for 1 h prior to each smoking session. Group 2 received aerosolized water for a similar interval. At various intervals following initial smoke exposure, animals were euthanized to determine (1) DID content in bronchoalveolar lavage fluid (BALF) and whole lungs at 2, 4, 6, 8, and 10 months; (2) lung histopathology at 3, 6, and 10 months; and (3) airspace enlargement as measured by the mean linear intercept (MLI) at 3 months.
# Following administration of either aerosolized HA or water, the nebulizer was disconnected and the smoking machine (Model TE-10, Teague Enterprises, Davis, Calif.) was attached to the exposure chamber. Both treatment groups were exposed to cigarette smoke for a period of 3 h/day, 5 days/week. The smoking machine simultaneously burned two filtered research-grade cigarettes (type 2R4F, University of Kentucky). Each cigarette was puffed once per minute for 2 s at a flow rate of 1.05 LPM, yielding 35 cc of smoke. This cycle was repeated nine times before ejecting the cigarette and loading a new one. Proper flow rate was maintained by a vacuum pump that established negative pressure at the exhaust port.
# Beginning 1 month following initial smoke exposure, Group 1 was administered a 0.1% solution of low-molecular-weight (150 kDa) streptococcal HA in water (Bayer, Shawnee, Kans.), using a Misty-Ox nebulizer (Vital Signs, Totowa, N.J.). Group 2 received aerosolized water alone. The nebulizer was connected to a heavy-duty air compressor that delivered a constant pressure of 30 psi. The aerosol entered the exposure chamber through an inflow port attached to the roof and was drawn through the chamber by negative pressure created by a vacuum pump connected to an exhaust port on the side wall. The chamber was large enough (28×19×15 in.) to permit the mice to remain in their cages while inhaling the aerosol, thereby minimizing direct handling of the animals.
# The levels of the elastin-specific crosslinking amino acids, DID, were measured in both BALF and whole-lung tissues. Animals were asphyxiated with CO2 and their lungs were lavaged three times with 1-ml aliquots of Hanks' solution. Both cell-free lavage fluids and homogenized lung tissues were then hydrolyzed in 6 N HCl at 110° C. for 24 h, and the hydrolysates were filtered and evaporated to remove acid. DID were quantified by high-performance liquid chromatography and electrospray ionization mass spectrometry according to previously published procedures^11.
# [8] = system: elastase-induced airspace enlargement; conditions: aerosol of 0.1% HA in water for 50 min prior to elastase; cited from earlier work
# [9] = system: smoke-induced elastic fiber injury; conditions: concurrent administration, within 3 months of smoke exposure; cited from earlier work
# [10] = system: elastases, including human metalloproteinase 12; conditions: cited from earlier work
# [11] = COPD patients, 18 mcg TIO each 24 hours, up to two months
compound,measurement,setting,value
"NC(CCCC[n+]1cc(CCC(N)C(=O)O)c(CCCC(N)C(=O)O)c(CCC(N)C(=O)O)c1)C(=O)O (stereo not drawn) [DES, Desmosine]","Recovered, mean",[1]; 1 ng/ml DES/IDS,0.50 ng/mL
same,"Recovered, mean",[1]; 5 ng/ml DES/IDS,2.42 ng/mL
same,"Recovered, mean",[1]; 10 ng/ml DES/IDS,5.04 ng/mL
same,stability through acid hydrolysis,[1],stable through acid hydrolysis
"NC(CCCC[n+]1cc(CCC(N)C(=O)O)cc(CCC(N)C(=O)O)c1CCCC(N)C(=O)O)C(=O)O (stereo not drawn) [IDS, Isodesmosine]","Recovered, mean",[1]; 1 ng/ml DES/IDS,0.48 ng/mL
same,"Recovered, mean",[1]; 5 ng/ml DES/IDS,2.55 ng/mL
same,"Recovered, mean",[1]; 10 ng/ml DES/IDS,5.37 ng/mL
same,stability through acid hydrolysis,[1],stable through acid hydrolysis
"C[N+]1(C)[C@@H]2C[C@@H](OC(=O)C(O)(c3cccs3)c3cccs3)C[C@H]1[C@@H]1O[C@@H]12 [TIO, Tiotropium]","FVC, FEV1 and ratio of FEV1/FVC",[2],significant increase
same,Residual Volume (RV),[2],decreases
same,patients with significant decrease in D/I levels in plasma,[3]; [11],10 out of 12
same,patients with significant decrease in D/I levels in sputum,[3]; [11],all 12 patients
same,patients with significant decrease in D/I levels in urine,[3]; [11],10 out of 12
same,"D/I levels in plasma, urine and sputum",[3]; two months of treatment with TIO,significant reductions
VGVAPG (Human) [elastin-derived hexapeptide isolated from ligamentum nuchae or aorta by porcine pancreatic elastase],pro-MMP1 and pro-MMP3 upregulation,[4],induce pro-MMP1 and pro-MMP3 upregulation
same,chemoattractant activity,[5],chemoattractants for neutrophils and macrophages
hyaluronan [HA],mean linear intercept (MLI),"[6]; 3 months of smoke, HA treated for 2 months, smoke alone 58.4 μm, p<0.01",42.6 μm
same,inflammatory response beyond that induced by smoke exposure,"[6]; mouse, in vivo",no evidence of an inflammatory response
same,"difference in BALF DID, HA/Smoke vs Smoke-Only",[7]; 2 and 4 months of smoke exposure,not statistically significant
same,"BALF DID, level before the drop","[7]; HA/Smoke group, 0.1% aerosolized HA begun 1 month after start of smoke",0.8 ng/mL
same,"BALF DID, level after the drop","[7]; HA/Smoke group, after 4 months of smoke exposure",less than 1 pg/ml
same,"BALF DID, HA-treated vs Smoke-Only",[7]; subsequent measurements (after 4 months),significantly lower levels
same,"difference in lung DID, HA/Smoke vs Smoke-Only","[7]; whole lungs, 10-month period",not statistically significant
same,airspace enlargement vs aerosolized water and elastase,[8],significantly less airspace enlargement
same,BALF DID levels,[9],significantly reduced
same,direct inhibition of elastases,[10],does not directly inhibit elastases
same,elastolysis of elastic fibers with bound HA,"[10]; in vitro, several types of elastase including human metalloproteinase 12",prevented elastolysis
